pIC50, pKi: −log10 of the molar value. Activity calls are given as the source filed them. The rule behind the calls is not given here.
Tests used:
[1] = molecular target: Epidermal growth factor receptor (Homo sapiens, UniProt P00533, L858R)
[2] = molecular target: Epidermal growth factor receptor (Homo sapiens, UniProt P00533, L858R/T790M)
[3] = test system: Epidermal growth factor receptor (Homo sapiens), P00533 [T790M]; experiment: Binding affinity to EGFR T790M mutant (unknown origin) assessed as covalent adduct formation at 100 uM after 1 hr by ESI-MS analysis
[4] = molecular target: Tyrosine-protein kinase Blk (Homo sapiens) (UniProt P51451); experiment: Inhibition of full-length recombinant human His-tagged cytoplasmic BLK expressed in baculovirus expression system at 1 uM by Z'-LYTE assay
[5] = molecular target: T1, Tyrosine-protein kinase JAK3 (Homo sapiens) (UniProt P52333); experiment: Inhibition of recombinant human GST-tagged cytoplasmic JAK3 (781 to 1124 amino acid residues) catalytic domain expressed in baculovirus expression system at 1 uM by Z'-LYTE assay
T1 sequence (whole entry): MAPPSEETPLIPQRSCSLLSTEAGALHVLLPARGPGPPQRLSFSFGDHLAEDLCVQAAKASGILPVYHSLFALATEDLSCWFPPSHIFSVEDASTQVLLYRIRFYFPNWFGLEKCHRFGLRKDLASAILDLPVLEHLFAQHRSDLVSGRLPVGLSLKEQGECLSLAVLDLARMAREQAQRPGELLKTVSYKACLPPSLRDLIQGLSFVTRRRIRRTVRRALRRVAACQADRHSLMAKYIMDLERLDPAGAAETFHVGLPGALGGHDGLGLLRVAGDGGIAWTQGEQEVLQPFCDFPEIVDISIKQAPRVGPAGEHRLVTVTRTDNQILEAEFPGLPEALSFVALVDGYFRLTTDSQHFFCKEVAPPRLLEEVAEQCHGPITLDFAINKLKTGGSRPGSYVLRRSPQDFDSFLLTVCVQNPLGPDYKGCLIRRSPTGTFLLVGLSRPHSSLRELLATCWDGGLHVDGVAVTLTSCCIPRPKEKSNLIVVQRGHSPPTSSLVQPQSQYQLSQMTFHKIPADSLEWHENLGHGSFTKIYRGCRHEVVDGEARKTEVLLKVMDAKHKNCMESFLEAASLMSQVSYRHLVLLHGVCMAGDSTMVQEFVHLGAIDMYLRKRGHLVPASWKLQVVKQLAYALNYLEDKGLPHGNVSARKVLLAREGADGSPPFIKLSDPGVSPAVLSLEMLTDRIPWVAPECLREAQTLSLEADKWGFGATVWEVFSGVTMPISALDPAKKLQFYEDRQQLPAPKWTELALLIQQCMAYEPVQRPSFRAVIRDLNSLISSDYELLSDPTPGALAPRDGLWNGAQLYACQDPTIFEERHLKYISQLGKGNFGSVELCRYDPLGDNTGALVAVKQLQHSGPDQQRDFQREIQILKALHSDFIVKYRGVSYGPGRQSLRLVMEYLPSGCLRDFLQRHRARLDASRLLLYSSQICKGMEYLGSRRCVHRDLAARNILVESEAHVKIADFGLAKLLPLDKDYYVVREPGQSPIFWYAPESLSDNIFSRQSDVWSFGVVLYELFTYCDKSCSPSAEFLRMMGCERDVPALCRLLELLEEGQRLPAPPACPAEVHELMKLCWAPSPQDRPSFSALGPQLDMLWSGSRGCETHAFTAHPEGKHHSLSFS

[6] = molecular target: Tyrosine-protein kinase BTK (Homo sapiens) (UniProt Q06187); experiment: Inhibition of full-length recombinant human His-tagged cytoplasmic BTK expressed in baculovirus expression system at 1 uM by Z'-LYTE assay
[7] = molecular target: Receptor tyrosine-protein kinase erbB-2 (Homo sapiens) (UniProt P04626); experiment: Inhibition of ERBB2 (unknown origin) at 1 uM by Z'-LYTE assay
[8] = molecular target: T2, Tyrosine-protein kinase TXK (Homo sapiens) (UniProt P42681); experiment: Inhibition of full-length recombinant human N-terminal GST-tagged cytoplasmic TXK (260 to 527 amino acid residues) expressed in baculovirus expression system at 1 uM by Z'-LYTE assay
T2 sequence (whole entry): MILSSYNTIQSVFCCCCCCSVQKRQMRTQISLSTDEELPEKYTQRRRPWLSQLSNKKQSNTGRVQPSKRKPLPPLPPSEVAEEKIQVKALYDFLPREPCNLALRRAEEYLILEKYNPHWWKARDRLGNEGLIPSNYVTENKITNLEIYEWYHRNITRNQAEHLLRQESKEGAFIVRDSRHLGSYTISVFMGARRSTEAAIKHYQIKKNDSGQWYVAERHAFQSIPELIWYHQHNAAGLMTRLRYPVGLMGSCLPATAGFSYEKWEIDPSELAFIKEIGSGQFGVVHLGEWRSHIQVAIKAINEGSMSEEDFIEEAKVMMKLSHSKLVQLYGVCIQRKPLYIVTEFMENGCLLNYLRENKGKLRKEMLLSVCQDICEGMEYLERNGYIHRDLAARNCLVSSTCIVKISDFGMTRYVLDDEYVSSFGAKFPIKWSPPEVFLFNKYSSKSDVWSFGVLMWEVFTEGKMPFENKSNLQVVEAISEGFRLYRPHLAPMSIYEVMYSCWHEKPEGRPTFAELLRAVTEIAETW

[9] = molecular target: T3, Epidermal growth factor receptor (Homo sapiens, UniProt P00533); experiment: Ratio of Kinact to Ki for reversible inhibition of wild-type human N-terminal GST-tagged EGFR cytoplasmic domain (669 to 1210 end amino acid residues) expressed in baculovirus expression system
Liver = experiment: Stability in mouse liver microsomes at 3 uM up to 50 mins by LCMS analysis; type: ADME, microsome
[10] = Stability in human plasma assessed as compound remaining at 5 uM after 1 hr by LCMS analysis; type: ADME, cell-free; conditions: read-out: Stability
[11] = Stability in mouse plasma assessed as compound remaining at 5 uM after 1 hr by LCMS analysis; type: ADME, cell-free; conditions: read-out: Stability
[12] = molecular target: T3, Epidermal growth factor receptor; experiment: Reversible inhibition of wild-type human N-terminal GST-tagged EGFR cytoplasmic domain (669 to 1210 end amino acid residues) expressed in baculovirus expression system using TK peptide substrate preincubated for 2 to 90 mins followed by 6-fold dilution
[13] = test system: Epidermal growth factor receptor (Homo sapiens), P00533 [L861Q]; conditions: 1 uM
[14] = test system: Epidermal growth factor receptor (Homo sapiens), P00533 [L858R,T790M]; conditions: 1 uM
[15] = test system: Epidermal growth factor receptor (Homo sapiens), P00533 [L858R,T790M]; conditions: 100 nM

Sequence of Tyrosine-protein kinase Blk (Homo sapiens) (P51451 2-505 limits assumed): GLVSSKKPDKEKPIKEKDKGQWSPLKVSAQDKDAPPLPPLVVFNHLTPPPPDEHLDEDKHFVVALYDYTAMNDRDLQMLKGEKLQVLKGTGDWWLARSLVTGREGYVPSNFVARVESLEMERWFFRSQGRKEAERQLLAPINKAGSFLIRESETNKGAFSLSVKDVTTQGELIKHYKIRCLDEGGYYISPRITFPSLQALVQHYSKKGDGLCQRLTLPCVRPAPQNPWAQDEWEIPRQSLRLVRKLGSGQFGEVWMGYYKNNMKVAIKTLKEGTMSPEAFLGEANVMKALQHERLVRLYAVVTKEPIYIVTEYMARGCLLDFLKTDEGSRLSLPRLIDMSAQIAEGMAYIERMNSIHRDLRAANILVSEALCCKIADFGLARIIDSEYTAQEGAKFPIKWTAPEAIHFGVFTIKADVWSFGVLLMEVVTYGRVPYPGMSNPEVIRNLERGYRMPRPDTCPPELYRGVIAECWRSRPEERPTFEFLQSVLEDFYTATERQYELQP
Sequence of Receptor tyrosine-protein kinase erbB-2 (Homo sapiens) (P04626 whole entry, the tested form may be a part): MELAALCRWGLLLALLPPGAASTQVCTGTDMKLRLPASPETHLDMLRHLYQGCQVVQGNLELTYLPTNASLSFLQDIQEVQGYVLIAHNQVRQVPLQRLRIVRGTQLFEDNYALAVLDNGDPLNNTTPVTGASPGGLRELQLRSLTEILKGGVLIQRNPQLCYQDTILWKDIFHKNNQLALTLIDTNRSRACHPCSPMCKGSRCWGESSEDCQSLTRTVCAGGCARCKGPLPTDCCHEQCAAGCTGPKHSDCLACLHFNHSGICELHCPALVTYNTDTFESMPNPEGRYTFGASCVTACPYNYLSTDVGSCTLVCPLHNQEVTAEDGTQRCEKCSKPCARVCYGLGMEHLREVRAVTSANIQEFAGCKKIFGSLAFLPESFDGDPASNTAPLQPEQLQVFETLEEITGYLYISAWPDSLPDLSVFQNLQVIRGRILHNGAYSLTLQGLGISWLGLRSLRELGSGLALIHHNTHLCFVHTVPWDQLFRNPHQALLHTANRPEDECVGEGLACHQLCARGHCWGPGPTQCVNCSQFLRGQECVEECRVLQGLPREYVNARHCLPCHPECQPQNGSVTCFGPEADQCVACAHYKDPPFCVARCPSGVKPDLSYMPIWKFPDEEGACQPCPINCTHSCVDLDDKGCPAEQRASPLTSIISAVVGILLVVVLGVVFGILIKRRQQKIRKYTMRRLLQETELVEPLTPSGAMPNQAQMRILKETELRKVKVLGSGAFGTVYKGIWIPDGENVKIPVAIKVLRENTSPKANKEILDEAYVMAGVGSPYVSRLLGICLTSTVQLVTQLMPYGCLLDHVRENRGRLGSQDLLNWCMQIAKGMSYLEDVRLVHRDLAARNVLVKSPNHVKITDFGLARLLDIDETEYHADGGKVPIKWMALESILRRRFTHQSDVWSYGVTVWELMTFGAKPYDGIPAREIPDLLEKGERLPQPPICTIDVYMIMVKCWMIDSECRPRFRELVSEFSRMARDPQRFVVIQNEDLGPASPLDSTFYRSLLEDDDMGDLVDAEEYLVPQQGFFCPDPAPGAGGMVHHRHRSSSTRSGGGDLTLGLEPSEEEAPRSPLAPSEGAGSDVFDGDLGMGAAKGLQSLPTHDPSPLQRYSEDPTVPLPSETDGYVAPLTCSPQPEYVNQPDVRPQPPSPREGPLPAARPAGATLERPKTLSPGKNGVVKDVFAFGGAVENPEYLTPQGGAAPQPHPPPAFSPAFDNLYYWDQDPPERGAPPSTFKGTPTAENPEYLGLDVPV
Sequence of Tyrosine-protein kinase BTK (Homo sapiens) (Q06187 whole entry): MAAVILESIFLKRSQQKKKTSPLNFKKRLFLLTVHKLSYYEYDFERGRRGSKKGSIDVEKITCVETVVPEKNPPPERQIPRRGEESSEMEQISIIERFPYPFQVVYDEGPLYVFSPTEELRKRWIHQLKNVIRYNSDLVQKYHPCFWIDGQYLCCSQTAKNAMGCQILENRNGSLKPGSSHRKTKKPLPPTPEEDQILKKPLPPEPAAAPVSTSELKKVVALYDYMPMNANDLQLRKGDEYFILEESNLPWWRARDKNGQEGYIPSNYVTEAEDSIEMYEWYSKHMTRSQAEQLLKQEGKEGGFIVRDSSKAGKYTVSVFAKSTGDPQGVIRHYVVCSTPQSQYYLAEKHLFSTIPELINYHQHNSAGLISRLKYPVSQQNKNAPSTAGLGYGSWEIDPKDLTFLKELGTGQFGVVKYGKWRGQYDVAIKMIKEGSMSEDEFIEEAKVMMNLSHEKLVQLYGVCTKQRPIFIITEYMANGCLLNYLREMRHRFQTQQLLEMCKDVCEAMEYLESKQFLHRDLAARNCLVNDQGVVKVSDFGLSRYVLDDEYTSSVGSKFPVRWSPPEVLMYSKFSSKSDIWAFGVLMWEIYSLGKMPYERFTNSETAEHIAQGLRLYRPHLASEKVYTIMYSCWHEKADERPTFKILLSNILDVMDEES

With `C=CC(=O)Nc1cc(Nc2n[nH]c3cc(Nc4cccc(F)c4)ccc23)c(OC)cc1N(C)CCN(C)C` the pIC50 [1] was > 9.00, the pIC50 [2] was > 9.00 and the Activity [3] was “Active”. For the same compound, the inhibition [4] was > 85%, the inhibition [5] was > 85% and the inhibition [6] was > 85%. For the same compound, the inhibition [7] was “Active”, the inhibition [8] was > 85% and the kinact/KI [9] was 470000 M⁻¹ s⁻¹. The Stability (Liver) was “Stable”, the remaining at 1 h, 5 µM [10] was > 75% and the remaining at 1 h, 5 µM [11] was > 90%. The pKi [12] was 8.29, the inhibition [13] was > 95% and the inhibition [14] was > 95%. For the same compound, the inhibition [15] was “Active”.

Source: ChEMBL document CHEMBL4007434, “Indazole-Based Covalent Inhibitors To Target Drug-Resistant Epidermal Growth Factor Receptor” (J Med Chem, 2017)
